Measurements published in patent US20260217687A1 (NeoPhore Limited, priority 2023, published 2026).

Molecular target: T1, recombinant N-terminal MLH1 (residues 15-340) (Homo sapiens, UniProt P40692)
T1 construct: recombinant N-terminal MLH1 (residues 15-340)
T1 sequence (P40692 15-340): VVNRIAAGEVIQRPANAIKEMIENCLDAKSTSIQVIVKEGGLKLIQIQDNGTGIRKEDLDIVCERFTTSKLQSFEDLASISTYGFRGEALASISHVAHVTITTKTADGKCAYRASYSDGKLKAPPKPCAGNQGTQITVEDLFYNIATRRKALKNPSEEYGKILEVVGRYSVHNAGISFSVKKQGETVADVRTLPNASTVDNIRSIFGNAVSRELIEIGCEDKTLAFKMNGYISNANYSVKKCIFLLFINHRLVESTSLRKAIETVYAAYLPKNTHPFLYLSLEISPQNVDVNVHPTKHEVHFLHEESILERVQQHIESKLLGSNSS
Assay: Fluorescence Polarisation Assay for MLH1
Type: binding
Conditions: 100 nM N-terminal MLH1, 5 nM probe compound
How it was run: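 Fluorescence polarisation displacement: 100 nM MLH1 (15-340) preincubated 30 min at room temperature with compound, then 5 nM rhodamine-labelled probe added and read immediately. Buffer 25 mM HEPES pH 7.5, 250 mM NaCl, 10 mM MgCl2, 0.01% Triton X-100, 5 mM DTT; normalised to no-inhibitor and no-enzyme controls.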

IC50 [nM]	SMILES
100 to 1000	CN1CC[C@H](Oc2ccc3c(c2)CN(C(=O)c2c(O)cc(C#N)cc2OCc2ccccc2)C3)C1 [Example 10.31, (S)-3-(Benzyloxy)-5-hydroxy-4-(5-((1-methylpyrrolidin-3-yl)oxy)isoindoline-2-carbonyl)benzonitrile]
< 100	CC(=O)N1CCC(Oc2ccc3c(c2)CN(C(=O)c2c(O)cc(C(F)F)cc2OCc2ccccc2)C3)CC1 [Example 29, 1-(4-((2-(2-(Benzyloxy)-4-(difluoromethyl)-6-hydroxybenzoyl)isoindolin-5-yl)oxy)piperidin-1-yl) ethan-1-one]
100 to 1000	O=C1OCCC1Nc1cccc2c1CN(C(=O)c1c(O)cc(C(F)F)cc1OCc1ccccc1)CC2 (stereo not shown) [Example 4.17, 3-((2-(2-(Benzyloxy)-4-(difluoromethyl)-6-hydroxybenzoyl)-1,2,3,4-tetrahydroisoquinolin-8-yl)amino) dihydrofuran-2(3H)-one]
100 to 1000	COc1cc2c(c(N[C@H]3CCOC3)c1)CN(C(=O)c1c(O)cc(C#N)cc1OCc1ccccc1)C2 [Example 10.14, (S)-3-(Benzyloxy)-5-hydroxy-4-(6-methoxy-4-((tetrahydrofuran-3-yl)amino)isoindoline-2-carbonyl)benzonitrile]
100 to 1000	O=C(c1c(O)cc(C(F)(F)F)cc1OCc1ccccc1)N1Cc2cccc(N[C@H]3CCOC3)c2C1 [Example 23, (S)-(2-(Benzyloxy)-6-hydroxy-4-(trifluoromethyl)phenyl) (4-((tetrahydrofuran-3-yl)amino)isoindolin-2-yl) methanone]
< 100	CN(C)CCOc1cc2c(c(NC3CCCC3)c1)CN(C(=O)c1c(O)cc(C(F)F)cc1OCc1ccccc1)CC2 [Example 4.72, (2-(Benzyloxy)-4-(difluoromethyl)-6-hydroxyphenyl)(8-(cyclopentylamino)-6-(2-(dimethylamino)ethoxy)-3,4-dihydroisoquinolin-2(1H)-yl)methanone]
1000 to 10000	CN(C)Cc1ccc2c(n1)CN(C(=O)c1c(O)cc(Cl)cc1OCc1ccccc1)C2 [Example 10.21]
100 to 1000	CN1CC(Nc2cccc3c2CN(C(=O)c2c(O)cc(Cl)cc2OCc2ccccc2)C3)C1 [Example 10.20, (2-(Benzyloxy)-4-chloro-6-hydroxyphenyl)(4-((1-methylazetidin-3-yl)amino)isoindolin-2-yl)methanone]
100 to 1000	CN1CCC(Oc2ccc3c(c2)CCN(C(=O)c2c(O)cc(C(F)F)cc2OCc2ccccc2)CC3)CC1 [Example 27.7, (2-(Benzyloxy)-4-(difluoromethyl)-6-hydroxyphenyl)(7-((1-methylpiperidin-4-yl)oxy)-1,2,4,5-tetrahydro-3H-benzo[d]azepin-3-yl)methanone]
100 to 1000	O=C(c1c(O)cc(C(F)F)cc1OCc1ccccc1)N1CCc2ncnc(NC3CCOC3)c2C1 (stereo not shown) [Example 27.20, (2-(Benzyloxy)-4-(difluoromethyl)-6-hydroxyphenyl)(4-((tetrahydrofuran-3-yl)amino)-7,8-dihydropyrido[4,3-d]pyrimidin-6(5H)-yl)methanone]
1000 to 10000	N#Cc1cc(O)c(C(=O)N2CCc3ccc(NC4CCOC4)cc32)c(OCc2ccccc2)c1 (stereo not shown) [Example 27.3, 3-(Benzyloxy)-5-hydroxy-4-(6-((tetrahydrofuran-3-yl)amino)indoline-1-carbonyl)benzonitrile]
100 to 1000	O=C(c1c(O)cc(C(F)F)cc1OCc1ccccc1)N1Cc2ccc(Cn3ccnc3)cc2C1 [Example 4.50, (5-((1H-Imidazol-1-yl)methyl)isoindolin-2-yl)(2-(benzyloxy)-4-(difluoromethyl)-6-hydroxyphenyl)methanone]
1000 to 10000	O=C(c1c(O)cc(Cl)cc1OCc1ccccc1)N1Cc2cccc(N[C@@H]3CCOC3)c2C1 [Example 7, (R)-(2-(Benzyloxy)-4-chloro-6-hydroxyphenyl)(4-((tetrahydrofuran-3-yl)amino)isoindolin-2-yl)methanone]
100 to 1000	O=C(c1c(O)cc(C(F)F)cc1OCc1ccccc1)N1CCc2ccc(Cn3ccnc3)cc2C1 [Example 4.48, (7-((1H-Imidazol-1-yl)methyl)-3,4-dihydroisoquinolin-2(1H)-yl)(2-(benzyloxy)-4-(difluoromethyl)-6-hydroxyphenyl)methanone]
100 to 1000	CC(=O)N1CC[C@H](Nc2cccc3c2CN(C(=O)c2c(O)cc(C#N)cc2OCc2ccccc2)C3)C1 [Example 10.6, (S)-4-(4-((1-Acetylpyrrolidin-3-yl)amino)isoindoline-2-carbonyl)-3-(benzyloxy)-5-hydroxybenzonitrile]
< 100	O=C(c1c(O)cc(C(F)F)cc1OCc1ccc2cnccc2c1)N1CCc2cccc(N[C@H]3CCOC3)c2C1 [Example 28.2, (S)-(4-(Difluoromethyl)-2-hydroxy-6-(isoquinolin-6-ylmethoxy)phenyl)(8-((tetrahydrofuran-3-yl)amino)-3,4-dihydroisoquinolin-2(1H)-yl)methanone]

IC50 [nM]	SMILES
100 to 1000	CN1CC(Nc2cccc3c2CN(C(=O)c2c(O)cc(C(F)F)cc2OCc2ccccc2)C3)C1 [Example 4.33]
100 to 1000	CC(=O)N1CC(Nc2cccc3c2CN(C(=O)c2c(O)cc(F)cc2OCc2ccccc2)C3)C1 [Example 10.23, 1-(3-((2-(2-(Benzyloxy)-4-fluoro-6-hydroxybenzoyl)isoindolin-4-yl)amino)azetidin-1-yl)ethan-1-one]
100 to 1000	CN1CC[C@@H](Oc2ccc3c(c2)CCN(C(=O)c2c(O)cc(C(F)F)cc2OCc2ccccc2)C3)C1 [Example 4.65, (R)-(2-(Benzyloxy)-4-(difluoromethyl)-6-hydroxyphenyl)(6-((1-methylpyrrolidin-3-yl)oxy)-3,4-dihydroisoquinolin-2(1H)yl)methanone]
1000 to 10000	N#Cc1cc(O)c(C(=O)N2Cc3cccc(NCC4CCOC4)c3C2)c(OCc2ccccc2)c1 (stereo not shown) [Example 10.10, 3-(Benzyloxy)-5-hydroxy-4-(4-(((tetrahydrofuran-3-yl)methyl)amino)isoindoline-2-carbonyl)benzonitrile]
100 to 1000	Nc1cc2c(cn1)CN(C(=O)c1c(O)cc(C(F)F)cc1OCc1ccccc1)C2 [Example 27.11, (6-Amino-1,3-dihydro-2H-pyrrolo[3,4-c]pyridin-2-yl)(2-(benzyloxy)-4-(difluoromethyl)-6-hydroxyphenyl)methanone hydroformate]
1000 to 10000	O=C(c1c(O)cc(C(F)F)cc1OCc1ccccc1)N1CCCc2cc(NC3CCOC3)ccc21 (stereo not shown) [Example 27.19, (2-(Benzyloxy)-4-(difluoromethyl)-6-hydroxyphenyl)(6-((tetrahydrofuran-3-yl)amino)-3,4-dihydroquinolin-1(2H)-yl)methanone]
100 to 1000	CN1CCC(Oc2ccc3c(c2)CN(C(=O)c2c(O)cc(C#N)cc2OCc2ccccc2)C3)CC1 [Example 10.33, 3-(Benzyloxy)-5-hydroxy-4-(5-((1-methylpiperidin-4-yl)oxy)isoindoline-2-carbonyl)benzonitrile]
1000 to 10000	CN(C)CCOc1ccc2c(c1)CCN(C(=O)c1c(O)cc(Cl)cc1OCc1ccccc1)C2 [Example 10.22, (2-(Benzyloxy)-4-chloro-6-hydroxyphenyl)(6-(2-(dimethylamino)ethoxy)-3,4-dihydroisoquinolin-2(1H)-yl)methanone]
100 to 1000	CNc1cc(OCCN(C)C)cc2c1CN(C(=O)c1c(O)cc(C(F)F)cc1OCc1ccccc1)CC2 [Example 4.73, (2-(Benzyloxy)-4-(difluoromethyl)-6-hydroxyphenyl)(6-(2-(dimethylamino)ethoxy)-8-(methylamino)-3,4-dihydroisoquinolin-2(1H)-yl)methanone]
100 to 1000	CC(=O)N1CC[C@@H](Nc2cccc3c2CN(C(=O)c2c(O)cc(C#N)cc2OCc2ccccc2)C3)C1 [Example 10.5, (R)-4-(4-((1-Acetylpyrrolidin-3-yl)amino)isoindoline-2-carbonyl)-3-(benzyloxy)-5-hydroxybenzonitrile]
1000 to 10000	N#Cc1cc(O)c(C(=O)N2Cc3ccccc3C2)c(OCc2ccccc2)c1 [Example 12.4, 3-(Benzyloxy)-5-hydroxy-4-(isoindoline-2-carbonyl)benzonitrile]
1000 to 10000	O=C(c1c(O)cc(C(F)F)cc1OCc1ccccc1)N1Cc2ccccc2C1 [Example 4.54, (2-(Benzyloxy)-4-(difluoromethyl)-6-hydroxyphenyl)(isoindolin-2-yl)methanone]
100 to 1000	CN1CCN(Cc2ccc3c(c2)CN(C(=O)c2c(O)cc(C#N)cc2OCc2ccccc2)C3)CC1 [Example 10.34, 3-(Benzyloxy)-5-hydroxy-4-(5-((4-methylpiperazin-1-yl)methyl)isoindoline-2-carbonyl)benzonitrile]
100 to 1000	O=C(c1c(O)cc(C(F)F)cc1OCc1ccccn1)N1CCc2cccc(N[C@H]3CCOC3)c2C1 [Example 4.10, (S)-(4-(Difluoromethyl)-2-hydroxy-6-(pyridin-2-ylmethoxy)phenyl)(8-((tetrahydrofuran-3-yl)amino)-3,4-dihydroisoquinolin-2(1H)-yl)methanone]
100 to 1000	O=C(c1c(O)cc(C(F)F)cc1OCc1ccccc1)N1CCc2cc(NC3CCOC3)ccc21 (single isomer, unassigned) [Example 27.5b, (S)-(2-(Benzyloxy)-4-(difluoromethyl)-6-hydroxyphenyl)(5-((tetrahydrofuran-3-yl)amino)indolin-1-yl)methanone or (R)-(2-(Benzyloxy)-4-(difluoromethyl)-6-hydroxyphenyl)(5-((tetrahydrofuran-3-yl)amino)indolin-1-yl)methanone]
